Values joined by “and” are separate entries in the source; they are usually repeats but may differ in a detail not shown here. Equal entries are not always repeated. Where two headings read alike, the source gives them in different places. Marks after values point to notes of the source that are not given here.
How the values were obtained:
rats [1] = assay: Maximal electroshock seizure (MES) test; assay type: in vivo; conditions: ip
mice [2] = assay: 6 Hz test; assay type: in vivo; conditions: mice
Method: The 6 Hz model test was carried out according to the protocol originally described by Brown et al. [54] and more recently by Barton et al. [55] and Kamiński et al. [47] and is a model of pharmacoresistant epilepsy [56].

mice [3] = assay: Corneal kindling; assay type: in vivo; conditions: […], ip
rats [4] = assay type: in vivo; conditions: ip
rats [5] = assay type: in vivo; conditions: ip; remark: listed apart in the source
mice [6] = assay: Rotarod test (neurotoxicity); assay type: in vivo; conditions: mice;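 note: in vivo neurotoxicity screen run within the NIH Epilepsy Therapy Screening Program (ETSP, formerly Anticonvulsant Screening Program)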
Method: (§3) The assays were carried out within the Epilepsy Therapy Screening Program (ETSP, previously known as the Anticonvulsant Screening Program, ASP), Epilepsy Branch, National Institute of Neurological and Communicative Disorders and Stroke, National Institutes of Health in Rockville, MD, USA [23].
(§4) The obtained compounds were screened for antiseizure activity and neurotoxicity in vivo within the Epilepsy Therapy Screening Program (ETSP, previously known as the Anticonvulsant Screening Program, ASP), Epilepsy Branch, National Institute of Neurological and Communicative Disorders and Stroke, National Institutes of Health in Rockville, MD, USA [23].

mice [7] = assay: Subcutaneous pentylenetetrazole seizure test (ScPTZ, SCMET); assay type: in vivo; conditions: mice, ip, […]
Method: as §3

mice [8] = assay: Formalin test (first screening); assay type: in vivo; conditions: 30.0 mg/kg, ip
Method: Formalin test. The first screening in doses 15 and 30 mg/kg was performed at the Jagiellonian University-Medical College. […] After 30 min, animals were injected with 20 μL of a 0.5% formalin solution into the plantar surface of the hind paw. The total time spent by animal licking or biting the injected paw was assessed for the following 40 min.

mice [9] = assay: Formalin test (ETSP, area under the curve); assay type: in vivo; conditions: 20.0 mg/kg, ip
rats [10] = assay: Sciatic nerve ligation (SNL) model, von Frey test; assay type: in vivo; conditions: ip
mice [11] = assay: Tail immersion test (local anesthetic activity); assay type: in vivo
Method: The tail immersion test in mice. […] The method was performed by subcutaneous (sc) injection of the tested substance dissolved in saline, at a concentration range 0.06–2%, in a constant volume of 0.2 mL about 1 cm from the root of the mouse tail. Fifteen minutes later, the 3-cm distal part of the tail was immersed into temperature-controlled water (50 ± 0.5 °C). The reaction time (latency until the tail is pulled away) was measured by the means of a chronometer. In this assay the cut-off was 20 s [29].

guinea pigs [12] = assay: Corneal anesthesia; assay type: in vivo
Method: A. Corneal anesthesia. […] The corneal reflex was examined by irritation of right eye conjunctiva (studied eye) and a left eye conjunctiva (control eye) by horsehair. The strength of local anesthetic activity was determined from the moment of solution instillation to the moment of reflex return. The presence or lack of corneal reflex were assessed. The eye conjunctiva irritation was done 6 times (every 5 s) with the interval of 5 min during the first 30 min [31].

guinea pigs [13] = assay: Infiltration anesthesia (intradermal wheal test); assay type: in vivo
Method: A painful reaction to a prick of the skin at the centre of the wheal three times and every 5 s with 5 min intervals during the first 30 min of observation was tested. The experiment was continued to achieve a return of a reaction to the prick. The control wheal was done by an intradermal injection of 0.1 mL of 0.9% NaCl [25]. Local anesthesia was determined by calculating the ratio of the number of positive responses (no flinch) to the number of negative responses (flinch).

murine astrocytes [14] = assay: MTT assay; assay type: cell-based
Method: Cells were seeded at a density of 1 × 10^4 cells per well in 96 well plates. […] Next, Crystal Dissolving Solution (Cayman) was added to each well.

murine astrocytes [15] = assay: Crystal violet (CV) assay; assay type: cell-based
Method: CV assay. Cells were seeded at a density of 1 × 10^4 cells per well in 96-well plates.

[16] = system: organotypic hippocampal slice cultures; assay: Neuroprotection primary screen, excitotoxin NMDA; assay type: cell-based; conditions: NMDA 10 µM; 10 and 100 µM compound
Source text: Gompound 1 : ADD Number: ItSot+ Batct: lE- Date Started:
Compound 2 : ADD Number: Froso Batct: le Date Completed i l|26-M ar -20 1 O […]
Excitotoxin: lNmoa lnsult Duration: la Uouo Solvent:
Primary Screen Results: ffi […]
Al lruuoa rolrr,| A2lr'rrr,tOa r Olrrr,t * --.- A3 lr'rnroa r oprvr + lsaoot+ t oplrl+aesogo iopM
BZ lr.rrr,ron ropr,t , -_-_-- 83 lluoa topt',r * jffi 1 4 t oopM.€sroso 1 oolrM la+eota tooptu*aasoeo roffi […]
The 'Primary screen Experiment" is a qualitative assessment of the ability of a compound to prevent excrtotoxic cell death. organotypic hippocampal slice cultures are treated *ltn r.i-."iivr-o-"spartate (NMDA) or kainic acad (KA) to induce neuronal cell death' Propidium iodide (Pl), a membrane-imper.eant cornpouna, is included in all wells of the culture plate.
Dying cells have compromised *]lT^"Toj*::, ttr. er rnJy oin "" into the cell, intercatate with DNA and fluoresce. Thus, the intensity of the Pl fluorescence is proportional to the amount of cell death in lhe individual itices. ttippocampat slice cullures are treated with the excitotoxin alone, or *i er. inoi"ui"o above, with the excitotoxin and either one -qf]bar-a Investigalional compounds at the concentrations indicated. lf neuroprotectron occurs as a consequence of the added […]
(§1) been treated with the excitotoxin alone.
(§2) (1 picture or pasted object on this page, not shown here)

[17] = system: organotypic hippocampal slice cultures; assay: Neuroprotection primary screen, excitotoxin kainic acid; assay type: cell-based; conditions: kainic acid 20 µM; 10 and 100 µM compound
Method: Compound 2 : ADD t{umber, b890s0 Batch: lB- Date Compteted. Ect\,t""201 0 […]
Excilotoxin: llGinic ncia Insult Duration: l+ Hours Solvent: […]
Ai lxn zopr.,r aZ lxa zopr,r Ae lre zoprta
Bz lr<n zopn er ]ra zopr',t l:+aot a r ooprt/|*aa9o8o l oopM lgaeota t oot,tr,t*gB9o8o t oopM […]
The "Primary screen Experiment" is a qualitative assessment of the ability of a compound to prevent excitotoxic cell dearh. organotypic hippocampal slice clltures are treated with N-methyl-D-aipartate lNuoa; o; kainic acid (KA) to induce neuronal cell death. Propidium iodide (Pl), a membrane-impermeant compound, is included in all welts of the culture plate.
Dying cells have compromised cell membranes, thus Pl may diffuse into the cell, intercalate with DNA and ftuoresce. Thus, the intensity of the Pl fluorescence is proportional to the amount of cell death in the individual slices. Hippocampal slice cultures are treated with the excitotoxin alone, or where indicated above, with the excitotoxin and either one eltu/o investigational compounds at the concentrations indicated. lf neuroprotection occurs as a consequence of the added […]
as §1, §2

mice [18] = conditions: mice
Method: as §3, §4

rats [19] = assay: Rotarod / TOX (neurotoxicity); conditions: rats, ip
Method: as §3, §4

rats [20] = assay: SCMET (subcutaneous Metrazol) test; assay type: in vivo; conditions: rats, ip, 0.50 h
slices = assay: Propidium iodide uptake in slices; assay type: cell-based; conditions: 100.00 uM
Source text: Anticonvulsant Screeninq Proqram
Solvent Code: DMSO Solvent Prep:
Add Compound Conc,(uM) # of slices % ofTotal Propidium lodide Uptake(mean +,/- S.E.M)

mice [21] = conditions: mouse, in vivo
Method: They were also evaluated in the iv pentylenetetrazole (PTZ) test.
Data are expressed as the mean PTZ dose ± SEM for n = 10 that induced clonus or twitch in mice exposed to a particular dose of the test compound

Q: Which results are given for `CC[C@H](CO)NCCOc1c(C)cccc1Cl.Cl` [Compound 5a, R-(-)-2-((2-(2-chloro-6-methylphenoxy)ethyl)amino)butan-1-ol hydrochloride]?
A: MES PI (rats [1]): 10.15; MES TPE (rats [1]): 0.25 h; MES ED50 (rats [1]; […]): 3.9 (2.1–6.2) mg/kg; 6 Hz ED50 (mice [2]; 44 mA, TPE 0.5 h, ip): 52.49 (41.85–67.05) mg/kg; 6 Hz TPE (mice [2]; 44 mA, ip): 0.5 h; 6 Hz TPE (mice [2]; 44 mA, po): 0.25 h; Corneal kindling seizure score by Racine (0–5) (mice [3]; at 25 mg/kg): 4.3; Hippocampal kindling TPE (rats [4]): 0.25 h; Hippocampal kindling seizure score by Racine (0–5), Rat1 (rats [4]; at 40 mg/kg): 4; Hippocampal kindling seizure score by Racine (0–5), Rat2 (rats [4]; at 40 mg/kg): 0; Pilocarpine-induced status epilepticus prevention: result (rats [5]; at 40 mg/kg): no activity; Rotarod TD50 (mice [6]; ip): 54.01 (35.70–64.23) mg/kg; Rotarod TPE (mice [6]; po): 0.25 h; Rotarod TD50 (mice [6]; po): 322.33 (257.98–382.69) mg/kg; SCMET ED50 (mice [7]): > 70.00 mg/kg; % of effect (I phase) (mice [8]): 19.4%; % of effect (II phase) (mice [8]): 55.7%; Time of licking paw ± SEM (I phase) (mice [8]): 72.3 ± 8.7 s; Time of licking paw ± SEM (II phase) (mice [8]): 13.5 ± 5.4 s; Area under the curve, % of control (I phase) (mice [9]): 76.5; t14 = 0.8847%; Area under the curve, % of control (II phase) (mice [9]): 91.5; t14 = 0.5440%; SNL TPE (rats [10]; rat, in vivo): 1 h; SNL: active at (rats [10]; rats, von Frey test): 4 mg/kg; Prolongation of the time reaction (mice [11]; 0.031%): 40.0%; Reaction time to painful stimulus (mice [11]; 0.031%): 4.9 ± 0.9 s; Prolongation of the time reaction (mice [11]; 0.094%): 57.1%; Reaction time to painful stimulus (mice [11]; 0.094%): 5.5 ± 1.6 s; Prolongation of the time reaction (mice [11]; 0.125%): 297.1%; Reaction time to painful stimulus (mice [11]; 0.125%): 13.9 ± 1.8 s; Prolongation of the time reaction (mice [11]; 0.5%): 434.3%; Reaction time to painful stimulus (mice [11]; 0.5%): 18.7 ± 1.3 s; Prolongation of the time reaction (mice [11]; 2.0%): 391.4%; Reaction time to painful stimulus (mice [11]; 2.0%): 17.2 ± 1.9 s; Prolongation of the time reaction (mice [11]; […]): 8.6%; Reaction time to painful stimulus (mice [11]; […]): 3.8 ± 0.5 s; Inhibition of pain reaction (guinea pigs [12]; 0.125%, 5 min): 46.67* %; Inhibition of pain reaction (guinea pigs [12]; 0.125%, 30 min): 0%; Inhibition of pain reaction (guinea pigs [12]; 0.125%, 60 min): 0%; Inhibition of pain reaction (guinea pigs [12]; 0.125%, 120 min): 0%; Inhibition of pain reaction (guinea pigs [12]; 0.5%, 5 min): 80.55*** %; Inhibition of pain reaction (guinea pigs [12]; 0.5%, 30 min): 0%; Inhibition of pain reaction (guinea pigs [12]; 0.5%, 60 min): 0%; Inhibition of pain reaction (guinea pigs [12]; 0.5%, 120 min): 0%; Inhibition of pain reaction (guinea pigs [12]; […], 5 min): 36.11* %; Inhibition of pain reaction (guinea pigs [12]; […], 30 min): 0%; Inhibition of pain reaction (guinea pigs [12]; […], 60 min): 0%; Inhibition of pain reaction (guinea pigs [12]; […], 120 min): 0%; Inhibition of pain reaction (guinea pigs [13]; 0.125%, 5 min): 83.33*** %; Inhibition of pain reaction (guinea pigs [13]; 0.125%, 30 min): 44.44** %; Inhibition of pain reaction (guinea pigs [13]; 0.125%, 24 h): 0%; Inhibition of pain reaction (guinea pigs [13]; 0.5%, 5 min): 100*** %; Inhibition of pain reaction (guinea pigs [13]; 0.5%, 30 min): 72.22*** %; Inhibition of pain reaction (guinea pigs [13]; 0.5%, 60 min): 58.82** %; Inhibition of pain reaction (guinea pigs [13]; 0.5%, 120 min): 52.94** %; Inhibition of pain reaction (guinea pigs [13]; 0.5%, 24 h): 0%; Inhibition of pain reaction (guinea pigs [13]; […], 5 min): 100*** %; Inhibition of pain reaction (guinea pigs [13]; […], 60 min): 33.33* %; Inhibition of pain reaction (guinea pigs [13]; […], 240 min): 16.67%; Inhibition of pain reaction (guinea pigs [13]; […], 24 h): 0%; cytotoxic activity (MTT) (murine astrocytes [14]): did not exhibit cytotoxic activity; impact on proliferation (crystal violet) (murine astrocytes [15]): did not exhibit cytotoxic activity and a notable impact on proliferation; Test Result (neuroprotection) [16]: No neuroprotection; Test Result (neuroprotection) [17]: No neuroprotection observed; MES ED50 (mice [18]; ip): 19.78 (16.16–22.33) mg/kg; MES PI (mice [18]; po): 5.03; MES TPE (mice [18]; po): 0.25 h; MES ED50 (mice [18]; po): 64.12 (52.15–75.37) mg/kg; Rotarod TPE (rats [19]): 0.25 h; Rotarod TD50 (rats [19]): 39.6 (36.2–78.3) mg/kg

Q: `CC[C@@H](CO)NCCOc1c(C)cccc1Cl` [Compound 6, S-( +)-2-((2-(2-chloro-6-methylphenoxy)ethyl)amino)butan-1-ol] was tested. Which “MES PI” value (rats [1]) did it give?
A: Its value is 4.19.

Q: What about the “MES TPE” value (rats [1]) of the same molecule?
A: The value was 0.5 h.

Q: What about the “MES ED50” value (rats [1]; 0.5 h (TPE)) of the same molecule?
A: The value was 10.58 (6.69–15.38) mg/kg.

Q: And the “6 Hz ED50” value (mice [2]; 32 mA, […], ip)?
A: The value was 20.4 (14.9–25.4) mg/kg.

Q: What about the “Corneal kindling ED50” value (mice [3]) of the same molecule?
A: Its value is 10.50 (3.67–22.09) mg/kg.

Q: And the “Hippocampal kindling ED50” value (rats [4]; […])?
A: The value was 15.81 mg/kg.

Q: What about the “Pilocarpine-induced status epilepticus prevention: active at” value (rats [5]) of the same molecule?
A: The value was 45 mg/kg.

Q: What about the “Pilocarpine test: deaths” value (rats [5]; at 90 mg/kg) of the same molecule?
A: The value was 8 deaths in 9 rats.

Q: And the “Rotarod TD50” value (mice [6]; ip)?
A: Its value is 47.7 (32.6–68.3) mg/kg.

Q: What about the “TOX TD50” value (mice [6]; ip, 6 Hz report of Aug-2010) of the same molecule?
A: Its value is 35.8 mg/kg.

Q: And the “Area under the curve (I phase)” value (mice [9])?
A: The value was 135.3 ± 36.4.

Q: And the “Area under the curve (II phase)” value (mice [9])?
A: The value was 387.0 ± 110.1.

Q: What about the “Area under the curve, % of control (I phase)” value (mice [9]) of the same molecule?
A: The value was 69.3% and 69.3; t14 = 1.5800%.

Q: What about the “Area under the curve (I phase)” value (mice [9]; listed as 354010) of the same molecule?
A: Its value is 135.2.

Q: What about the “Area under the curve (II phase)” value (mice [9]; listed as 354010) of the same molecule?
A: Its value is 387.0.

Q: And the “Area under the curve, % of control (II phase)” value (mice [9]; listed as 354010)?
A: The value was 57.2%.

Q: What about the “SCMET ED50” value (rats [20]) of the same molecule?
A: The value was over 60.0 mg/kg.

Q: What about the “% of Total Propidium Iodide Uptake (mean +/- S.E.M)” value (slices) of the same molecule?
A: Its value is 33.1%.

Q: What about the “Test Result (neuroprotection)” value [16] of the same molecule?
A: Its value is “No neuroprotection observed”.

Q: And the “influence on seizure threshold” value (mice [21])?
A: Its value is “effect was not shown”.

Q: And the “Rotarod TD50” value (rats [19])?
A: The value was 44.29 (40.72–47.52) mg/kg.

— paper PMC9889419 (Pharmacological Reports, 2022)
